Test results taken from US7351747B2, “Skin treatment for relief of itch” (priority 2003, dated 2008).

System: skin itch
Assay: Topical application of chlorhydrate composition to individuals with skin itch
Type: in vivo, human
Description: Three individuals, each complaining of skin itch of undetermined origin, were treated as follows. A composition was prepared at a concentration of aluminum chlorhydrate of about 10 to about 20 weight percent in water and further including a small quantity of a quaternary ammonium compound as a preservative.
An adult individual has applied 30% wt. of aluminum chlorhydrate in a topical cream to an area of the forearm experiencing itch.
An adult complains of itch on their legs.
An adult complaining of itch on their forearms and legs applies an ointment composition including 25% wt. of aluminum zirconium chlorhydrate to the affected areas.
An aqueous composition comprising aluminum chlorhydrate at a concentration of about 20 weight percent is applied to a synthetic fabric wipe and sealed in a tear-open pouch. Subsequently, an adult experiencing itch on their forearms tears open the pouch and wipes the area of the skin with the moist wipe; the wipe and pouch are discarded after use.

[1] = adult female, legs, 30% wt. in a lotion
[2] = adult male, forearms, aqueous composition about 20 weight percent on synthetic fabric wipe
[3] = adult male, forearms and legs, ointment composition including 25% wt.

Substance	duration of relief of itch [1]	time to relief of itch [1]	relief of skin itch (adult individual, forearm, 30% wt. in a topical cream, no other active agent)	duration of relief from itching [2]	time to relief from itching [2]	time to relief from itching (three adults (one male, two female), skin itch of undetermined origin, about 10 to about 20 weight percent in water with quaternary ammonium preservative, pump spray)	duration of relief from itching (three adults, skin itch of undetermined origin, about 10 to about 20 weight percent in water, pump spray)	adverse side effects (three adults, about 10 to about 20 weight percent in water, pump spray to itching skin)	duration of relief of itch [3]	time to relief of itch [3]
aluminum chlorhydrate	about 24 hours	within a few minutes	relieves the skin itch	about a day	within minutes	within a few minutes	about one day	No adverse side effects were reported	–	–
aluminum zirconium chlorhydrate	–	–	–	–	–	–	–	–	about 24 hours	within minutes
